Converted amounts (≈) assume the structure as drawn.
How the values were obtained:
SGC-7901 = assay: Antiproliferative activity against human SGC-7901 cells assessed as inhibition of cell proliferation incubated for 48 hrs by MTT assay; assay type: functional, cell-based; conditions: SGC-7901, 48 h
LS174T = assay: Antiproliferative activity against human LS174T cells assessed as inhibition of cell proliferation incubated for 48 hrs by MTT assay; assay type: functional, cell-based
HCT-116 = assay: Antiproliferative activity against human HCT-116 cells assessed as inhibition of cell proliferation incubated for 48 hrs by MTT assay; assay type: functional, cell-based; conditions: HCT-116, 48 h
ECa-109 cell line = assay: Antiproliferative activity against human Eca-109 cells assessed as inhibition of cell proliferation incubated for 48 hrs by MTT assay; assay type: functional, cell-based; conditions: ECa-109, 48 h
CCRF S-180 = assay: Antiproliferative activity against mouse CCRF S-180 cells assessed as inhibition of cell proliferation incubated for 48 hrs by MTT assay; assay type: functional, cell-based; conditions: CCRF S-180, 48 h
MKN-28 = assay: Antiproliferative activity against human MKN-28 cells assessed as inhibition of cell proliferation incubated for 48 hrs by MTT assay; assay type: functional, cell-based; conditions: MKN-28, 48 h
HCT-8 = assay: Antiproliferative activity against human HCT-8 cells assessed as inhibition of cell proliferation incubated for 48 hrs by MTT assay; assay type: functional, cell-based; conditions: HCT-8, 48 h
SW-620 = assay: Antiproliferative activity against human SW620 cells assessed as inhibition of cell proliferation incubated for 48 hrs by MTT assay; assay type: functional, cell-based; conditions: SW-620, 48 h
[1] = Antioxidant activity assessed as DPPH radical scavenging potential measured for 30 mins optical density based analysis; assay type: functional
[2] = Antioxidant activity assessed as ABTS radical cation scavenging activity incubated for 10 mins under dark condition; assay type: functional
Clostridium perfringens = assay: Antibacterial activity against Clostridium perfringens CICC 22949 assessed as inhibition of bacterial growth incubated for 24 hrs by broth microdilution method; assay type: functional
Escherichia coli [3] = assay: Antibacterial activity against Escherichia coli CICC 10389 assessed as inhibition of bacterial growth incubated for 24 hrs by broth microdilution method; assay type: functional
Streptococcus pyogenes = assay: Antibacterial activity against Streptococcus pyogenes CICC 10356 assessed as inhibition of bacterial growth incubated for 24 hrs by broth microdilution method; assay type: functional
Staphylococcus aureus [4] = assay: Antibacterial activity against methicillin-resistant Staphylococcus aureus ATCC 700699 assessed as inhibition of bacterial growth incubated for 24 hrs by broth microdilution method; assay type: functional
Salmonella enteritidis = assay: Antibacterial activity against Salmonella enteritidis CICC 24119 assessed as inhibition of bacterial growth incubated for 24 hrs by broth microdilution method; assay type: functional, Salmonella enterica subsp. enterica serovar Enteritidis; conditions: Salmonella enterica
Shigella dysenteriae = assay: Antibacterial activity against Shigella dysenteriae CICC 23829 assessed as inhibition of bacterial growth incubated for 24 hrs by broth microdilution method; assay type: functional
Staphylococcus aureus [5] = assay: Antibacterial activity against Staphylococcus aureus CICC 23656 assessed as inhibition of bacterial growth incubated for 24 hrs by broth microdilution method; assay type: functional
Pseudomonas aeruginosa [6] = assay: Antibacterial activity against Pseudomonas aeruginosa CICC 10419 assessed as inhibition of bacterial growth incubated for 24 hrs by broth microdilution method; assay type: functional
Escherichia coli [7] = assay: Antibacterial activity against Escherichia coli assessed as inhibition of bacterial growth incubated for 24 hrs by micro broth dilution method; assay type: functional
Brucella abortus = assay: Antibacterial activity against Brucella abortus by serial dilution method; assay type: functional
Vibrio cholerae = assay: Antibacterial activity against Vibrio cholerae by serial dilution method; assay type: functional
[8] = Cytotoxicity against MDCK cells incubated for 48 hrs by SRB bioassay; assay type: toxicity, cell-based, Canis lupus familiaris; conditions: dog
[9] = Therapeutic index, ratio of CC50 for cytotoxicity against MDCK cells to IC50 for antiviral activity against influenza virus A A/PR/8/34; assay type: toxicity, cell-based; conditions: dog, read-out: TI
Influenza A virus = assay: Antiviral activity against influenza virus A A/PR/8/34 infected in MDCK cells assessed as inhibition of virus-induced cytopathic effect measured after 48 hrs by SRB bioassay; assay type: functional, organism-based; conditions: A/PR/8/34, MDCK
[10] = target: Histone acetyltransferase p300 (Homo sapiens, UniProt Q09472); assay: Inhibition of N-terminal His/GST-tagged recombinant human p300 HAT domain (965 to 1810 residues) expressed in Sf9 insect cells using isotope labelled 3H-Ac-CoA as substrate incubated for 60 mins by microbeta counter based analysis
[11] = Antioxidant activity assessed as DPPH radical scavenging activity measured after 25 mins by UV visible spectrophotometeric analysis; assay type: functional
[12] = Antioxidant activity assessed as ABTS radical scavenging activity incubated for 10 mins by UV spectrophotometeric analysis; assay type: functional
Staphylococcus aureus [13] = assay: Antibacterial activity against methicillin-resistant Staphylococcus aureus assessed as inhibition of bacterial growth incubated for 24 hrs by CLSI based broth microdilution method; assay type: functional
Pseudomonas aeruginosa [14] = assay: Antibacterial activity against Pseudomonas aeruginosa 27853 assessed as inhibition of bacterial growth incubated for 24 hrs by CLSI based broth microdilution method; assay type: functional
Candida parapsilosis = assay: Antifungal activity against Candida parapsilosis ATCC 22019 assessed as inhibition of fungal growth incubated for 24 hrs; assay type: functional; conditions: Lodderomyces parapsilosis
Candida albicans = assay: Antifungal activity against Candida albicans ATCC 90023 assessed as inhibition of fungal growth incubated for 24 hrs; assay type: functional
[15] = Inhibition of hypoxia induced HIF-1 transcriptional activity in human T47D cells incubated for 1 hr followed by exposure to hypoxic condition for 20 hrs by renilla and HRE-luciferase based dual-luciferase reporter assay; assay type: cell-based
MCF7 = assay: Antiproliferative activity against human MCF7 cells assessed as inhibition of cell growth incubated for 72 hrs by MTT assay; assay type: functional, cell-based; conditions: MCF7, 72 h
HeLa [16] = assay: Cytotoxicity against human HeLa cells assessed as inhibition of cell growth by Sulforhodamine B colorimetric assay; assay type: functional, cell-based
Ca-Ski = assay: Anticancer activity against human Ca-Ski cells assessed as cell growth inhibition incubated for 48 hrs by SRB assay; assay type: functional, cell-based
HeLa [17] = assay: Anticancer activity against human HeLa cells assessed as cell growth inhibition incubated for 48 hrs by SRB assay; assay type: functional, cell-based

Chain of Histone acetyltransferase p300 (Q09472 whole entry, the tested form may be a part): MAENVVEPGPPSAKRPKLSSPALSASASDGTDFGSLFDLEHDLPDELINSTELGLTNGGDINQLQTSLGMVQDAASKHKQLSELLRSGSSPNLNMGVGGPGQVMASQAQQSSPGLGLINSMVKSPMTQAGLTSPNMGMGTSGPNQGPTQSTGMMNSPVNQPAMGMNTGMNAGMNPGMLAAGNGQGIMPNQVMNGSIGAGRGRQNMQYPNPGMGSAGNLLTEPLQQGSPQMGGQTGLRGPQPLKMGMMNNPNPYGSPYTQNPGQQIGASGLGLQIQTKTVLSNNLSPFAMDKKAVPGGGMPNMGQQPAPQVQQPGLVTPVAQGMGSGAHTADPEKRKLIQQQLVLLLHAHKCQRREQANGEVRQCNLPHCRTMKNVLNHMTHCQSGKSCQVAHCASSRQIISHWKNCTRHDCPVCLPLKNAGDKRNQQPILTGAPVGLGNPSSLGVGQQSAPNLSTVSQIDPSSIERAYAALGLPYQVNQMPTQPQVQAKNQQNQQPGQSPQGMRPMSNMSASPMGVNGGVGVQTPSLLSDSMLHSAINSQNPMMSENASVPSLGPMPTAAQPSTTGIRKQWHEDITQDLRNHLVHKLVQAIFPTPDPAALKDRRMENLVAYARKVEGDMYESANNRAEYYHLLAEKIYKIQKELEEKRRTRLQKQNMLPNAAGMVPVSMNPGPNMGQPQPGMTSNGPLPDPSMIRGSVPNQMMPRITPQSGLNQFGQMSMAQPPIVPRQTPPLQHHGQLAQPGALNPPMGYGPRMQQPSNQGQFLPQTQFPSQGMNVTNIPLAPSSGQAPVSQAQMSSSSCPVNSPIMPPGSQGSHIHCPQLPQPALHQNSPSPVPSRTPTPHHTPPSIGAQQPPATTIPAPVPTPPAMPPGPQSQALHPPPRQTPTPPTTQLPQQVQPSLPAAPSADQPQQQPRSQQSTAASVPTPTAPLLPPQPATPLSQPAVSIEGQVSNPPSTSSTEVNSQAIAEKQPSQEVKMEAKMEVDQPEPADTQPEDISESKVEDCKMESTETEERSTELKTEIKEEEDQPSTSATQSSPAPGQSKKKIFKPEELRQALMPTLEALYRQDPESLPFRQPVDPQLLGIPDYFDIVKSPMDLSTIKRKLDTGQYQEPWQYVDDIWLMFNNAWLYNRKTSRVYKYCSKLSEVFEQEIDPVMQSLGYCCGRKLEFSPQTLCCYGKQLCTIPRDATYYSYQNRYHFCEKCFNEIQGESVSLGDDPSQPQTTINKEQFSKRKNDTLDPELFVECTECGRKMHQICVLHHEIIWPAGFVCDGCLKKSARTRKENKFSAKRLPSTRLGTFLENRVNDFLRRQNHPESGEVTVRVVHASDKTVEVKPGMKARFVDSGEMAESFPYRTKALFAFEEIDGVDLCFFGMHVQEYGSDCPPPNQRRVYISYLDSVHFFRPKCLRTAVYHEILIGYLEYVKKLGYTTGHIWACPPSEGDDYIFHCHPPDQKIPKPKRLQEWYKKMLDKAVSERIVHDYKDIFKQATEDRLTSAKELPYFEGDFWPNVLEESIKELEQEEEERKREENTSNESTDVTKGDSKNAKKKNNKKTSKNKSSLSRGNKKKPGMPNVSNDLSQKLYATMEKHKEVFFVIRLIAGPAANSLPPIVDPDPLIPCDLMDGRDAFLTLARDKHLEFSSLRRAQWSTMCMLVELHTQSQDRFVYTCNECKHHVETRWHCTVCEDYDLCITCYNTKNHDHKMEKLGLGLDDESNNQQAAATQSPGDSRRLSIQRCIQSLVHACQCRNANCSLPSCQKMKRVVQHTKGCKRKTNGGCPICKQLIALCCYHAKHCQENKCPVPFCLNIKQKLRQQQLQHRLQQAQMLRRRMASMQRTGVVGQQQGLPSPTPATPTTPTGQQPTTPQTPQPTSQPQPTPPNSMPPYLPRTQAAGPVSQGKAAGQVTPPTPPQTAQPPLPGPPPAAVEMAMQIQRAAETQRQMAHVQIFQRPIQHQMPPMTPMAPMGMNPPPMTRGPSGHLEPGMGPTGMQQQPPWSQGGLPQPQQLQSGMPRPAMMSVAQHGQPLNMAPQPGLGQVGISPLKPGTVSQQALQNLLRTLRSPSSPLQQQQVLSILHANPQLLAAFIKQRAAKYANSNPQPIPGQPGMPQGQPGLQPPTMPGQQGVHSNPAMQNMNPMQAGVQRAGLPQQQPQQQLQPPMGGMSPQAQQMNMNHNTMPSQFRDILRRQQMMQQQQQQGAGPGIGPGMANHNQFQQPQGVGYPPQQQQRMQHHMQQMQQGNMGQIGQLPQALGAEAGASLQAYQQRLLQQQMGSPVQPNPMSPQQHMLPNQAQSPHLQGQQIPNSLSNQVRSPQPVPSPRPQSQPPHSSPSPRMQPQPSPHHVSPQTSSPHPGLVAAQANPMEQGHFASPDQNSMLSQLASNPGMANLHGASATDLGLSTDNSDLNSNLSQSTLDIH

COc1ccc2c(CC(=O)ON[C@@H](CSCc3ccccc3)C(=O)OCc3ccccc3)c3[n+](cc2c1OC)CCc1cc2c(cc1-3)OCO2
IC50 (SGC-7901): 15 µM
IC50 (LS174T): 15 µM
IC50 (HCT-116): 15 µM
IC50 (ECa-109 cell line): 15 µM
IC50 (CCRF S-180): 15 µM
IC50 (MKN-28): 15 µM
IC50 (HCT-8): 15 µM
IC50 (SW-620): 15 µM

COc1cc(CNc2nc3ccccc3s2)c2cc3[n+](cc2c1O)CCc1cc2c(cc1-3)OCO2
IC50 [1]: 25.4 µM
IC50 [2]: 8.48 µM

COc1ccc2cc3[n+](cc2c1OCc1ccc(C#N)cc1)CCc1cc2c(cc1-3)OCO2
MIC (Clostridium perfringens): 1.77 µM
MIC (Escherichia coli [3]): 1.77 µM
MIC (Streptococcus pyogenes): 1.77 µM
MIC (Staphylococcus aureus [4]): 1.77 µM
MIC (Salmonella enteritidis): 1.77 µM
MIC (Shigella dysenteriae): 1.77 µM
MIC (Staphylococcus aureus [5]): 1.77 µM
MIC (Pseudomonas aeruginosa [6]): 1.77 µM

COc1cc(/C=C(\C#N)n2cc([N+](=O)[O-])nc2C)c2c(c1OCc1ccccc1F)CN1CCc3cc4c(cc3C1C2)OCO4 (centres undefined)
MIC (Escherichia coli [7]): 3 µM (≈ 1.83 µg/mL)

COc1cc(CC2C(=O)C(C)C(=O)C(C)C2=O)c2cc3[n+](cc2c1O)CCc1cc2c(cc1-3)OCO2.[Cl-] (centres undefined)
MIC (Brucella abortus): 64 mg/L
MIC (Vibrio cholerae): 64 mg/L

COc1ccc(N2CCN(CCCCCOc3c(OC)ccc4cc5[n+](cc34)CCc3cc4c(cc3-5)OCO4)CC2)c(OC)c1.[Cl-]
CC50 at 48 h [8]: 3890 mg/L
selectivity ratio [9]: 111
IC50 (Influenza A virus): 35.2 mg/L

COc1cc2cc3[n+](cc2cc1OC)CCCc1cc2c(cc1-3)OCO2
IC50 [10]: 1.8 µM

COc1ccc2cc3[n+](cc2c1OCCCCCn1ccc2ccccc21)CCc1cc2c(cc1-3)OCO2
IC50 [11]: 17.1 µM
IC50 [12]: 9.64 µM

COc1cc(C=C(C#N)C#N)c2cc3[n+](cc2c1O)CCc1cc2c(cc1-3)OCO2.[Cl-]
MIC (Brucella abortus): 64 mg/L
MIC (Vibrio cholerae): 64 mg/L

CCCCOc1c(OC)cc(/C=C2\SC(=O)NC2=O)c2c1CN1CCc3cc4c(cc3C1C2)OCO4 (centres undefined)
MIC (Staphylococcus aureus [13]): 8 µM (≈ 4.07 µg/mL)
MIC (Pseudomonas aeruginosa [14]): 8 µM (≈ 4.07 µg/mL)
MIC (Candida parapsilosis): 8 µM (≈ 4.07 µg/mL)
MIC (Candida albicans): 16 µM (≈ 8.14 µg/mL)

COc1cc(-c2ccc(-c3ccccc3)cc2)c2cc3[n+](cc2c1OC)CCc1cc2c(cc1-3)OCO2
IC50 [15]: 0.74 µM
IC50 (MCF7): 0.98 µM

COc1ccc2cc3[n+](cc2c1OCc1ccc(C(F)(F)F)cc1)CCc1cc2c(cc1-3)OCO2
MIC (Clostridium perfringens): 0.82 µM
MIC (Escherichia coli [3]): 0.82 µM
MIC (Streptococcus pyogenes): 0.82 µM
MIC (Staphylococcus aureus [4]): 0.82 µM
MIC (Salmonella enteritidis): 0.82 µM
MIC (Shigella dysenteriae): 0.82 µM
MIC (Staphylococcus aureus [5]): 0.82 µM
MIC (Pseudomonas aeruginosa [6]): 0.82 µM

COc1cc(CN2CCN(c3cccc4ccccc34)CC2)c2cc3[n+](cc2c1O)CCc1cc2c(cc1-3)OCO2
CC50 (HeLa [16]): 478 µM
IC50 (HeLa [16]): 8.31 µM

COc1ccc2cc3[n+](cc2c1OCc1ccc([N+](=O)[O-])cc1)CCc1cc2c(cc1-3)OCO2
MIC (Clostridium perfringens): 1.71 µM
MIC (Escherichia coli [3]): 1.71 µM
MIC (Streptococcus pyogenes): 1.71 µM
MIC (Staphylococcus aureus [4]): 1.71 µM
MIC (Salmonella enteritidis): 1.71 µM
MIC (Shigella dysenteriae): 1.71 µM
MIC (Staphylococcus aureus [5]): 1.71 µM
MIC (Pseudomonas aeruginosa [6]): 1.71 µM

COc1ccc2cc3[n+](cc2c1OCCCCCn1c(C)cc2ccccc21)CCc1cc2c(cc1-3)OCO2.[Cl-]
IC50 [11]: 19.9 µM
IC50 [12]: 9.09 µM
IC50 (Ca-Ski): 6.32 mg/L
IC50 (HeLa [17]): 7.21 mg/L

CCCCCCOc1c(OC)cc(/C=C2\SC(=O)NC2=O)c2c1CN1CCc3cc4c(cc3C1C2)OCO4 (centres undefined)
MIC (Candida parapsilosis): 60 µM (≈ 32.2 µg/mL)
MIC (Candida albicans): 15 µM (≈ 8.05 µg/mL)

Reference: ChEMBL document CHEMBL5096175, “An insight into the medicinal attributes of berberine derivatives: A review” (Bioorg Med Chem, 2021)
